For one molecule, Activity, inhibition and IC50 results are on record in ChEMBL document CHEMBL3875162, “Synthesis and biological evaluation of new benzimidazole-thiazolidinedione hybrids as potential cytotoxic and apoptosis inducing agents” (Eur J Med Chem, 2016).

Calls of active or inactive are those of the source. The rule behind the calls is not given here.

In data set [1] the test system is A549. In words: Induction of apoptosis in human A549 cells assessed as nuclear condensation at 5 to 15 uM after 24 hrs by DAPI staining based fluorescence microscopic method. Format: functional, cell-based.
The subject of data set [2] is A549. In words: Induction of apoptosis in human A549 cells assessed as late apoptotic cells at 15 uM after 24 hrs by Annexin V-FITC/propidium iodide staining based flow cytometry (reference value: 0.8%). Format: functional. In general terms: In flow cytometry, cells or beads pass a laser one at a time.
A short description of data set [3]: Cell cycle arrest in human A549 cells assessed as accumulation at G2/M phase at 10 uM after 24 hrs by propidium iodide staining-based flow cytometry (reference value: 23.3%). Format: functional.
Data set [4] concerns A549. In words: Inhibition of F-actin polymerization in human A549 cells assessed as disruption of actin fibre assembly after 24 hrs by rhodamine-phalloidin/[…]-dual staining based fluorescent microscopic method. Format: cell-based.
The test system of data set [5] is A549. In words: Induction of mitochondrial membrane potential loss in human A549 cells at 10 uM after 24 hrs by rhodamine-123 staining based flow cytometry relative to control. Format: functional.
Data set [6] relates to A549. In words: Antimigratory activity in human A549 cells after 24 hrs by phase contrast microscopy-based wound healing assay. Format: functional, cell-based.
Data set [7] is described as follows: Cytotoxicity against human PC3 cells assessed as cell growth inhibition after 48 hrs by MTT assay. Format: functional, cell-based. As to conditions: PC-3, 48 h.
For data set [8], the system named is A549. In words: Induction of apoptosis in human A549 cells assessed as necrotic cells at 10 uM after 24 hrs by Annexin V-FITC/propidium iodide staining based flow cytometry (reference value: 2.3%). Format: functional.
Data set [9] can be described thus: Cytotoxicity against human A549 cells assessed as cell growth inhibition after 48 hrs by MTT assay. Format: functional, cell-based. The following applies: A549, 48 h. (In general: Tetrazolium dyes change colour on reduction, which living cells bring about.)
In data set [10] the test system is A549. In words: Induction of apoptosis in human A549 cells assessed as late apoptotic cells at 10 uM after 24 hrs by Annexin V-FITC/propidium iodide staining based flow cytometry (reference value: 0.8%). Format: functional.
Data set [11] in a line: Cell cycle arrest in human A549 cells assessed as accumulation at G0/G1 phase at 10 uM after 24 hrs by propidium iodide staining-based flow cytometry (reference value: 66.6%). Format: functional.
A short description of data set [12]: Cytotoxicity against human MCF10A cells assessed as cell growth inhibition after 48 hrs by MTT assay. Format: toxicity, cell-based, MCF-10A.
Data set [13] in a line: Cell cycle arrest in human A549 cells assessed as accumulation at G0/G1 phase at 15 uM after 24 hrs by propidium iodide staining-based flow cytometry (reference value: 66.6%). Format: functional.

As a reminder, the IC50 is the concentration needed to halve the response being measured. Turning to `Cn1c(/C=C2\SC(=O)N(CC(=O)Nc3nc(-c4ccccc4)cs3)C2=O)nc2ccccc21`, in data set [1], the outcome was Active. Also, the Activity in data set [2] is 11.9%; in [3], 49.3%; in [5], 30.6%; in [6], “Dose-dependent effect”; in [8], 3%; in data set [10], 7.9%. For the same molecule, the values for the Activity in data set [11] and in data set [13] were 44.8% and 30.5%, respectively. Besides, the inhibition result in data set [4] is “Dose-dependent effect”. The concentration for half-maximal inhibition (IC50) in data set [7] is 39.9 µM; in data set [9], 11.5 µM. For the same molecule, the IC50 at 48 h in [12] is above 100 µM.
